Test results as given in US20150239889A1, “PYRAZOLOPYRIMIDINE COMPOUND” (MITSUBISHI TANABE PHARMA CORPORATION, priority 2012, published 2015).

Columns and labels:
human HIF-PHD2 = biological target: T1, human HIF-PHD2 (Homo sapiens, UniProt Q9GZT9); assay: HIF-PHD inhibition assay (fluorescence polarization), human HIF-PHD2; assay type: biochemical; settings: 2-oxoglutaric acid 3.33 μmol/L
T1 construct: purchased CrystalGenomics Ltd
Summary of the method: (§1)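 Activity was derived as the fluorescence polarization (mP) after enzyme addition minus that measured before enzyme addition. Probe bore a 5′-fluoresceinamide (FAM) label with an aminocaproic acid (ACA) linker.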

Hep3B cells = assay: EPO production assay (ELISA of culture supernatant); assay type: cell-based; settings: Homo sapiens, 3 μmol/L test compound, 48 hours, relative to control (0.1% DMSO), read-out: EPO production stimulation rate with 3 μmol/L test compound
Summary of the method: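 Hep3B cells (40000/well) switched to MEM with 0.5% FBS and treated with compound (0.1% DMSO) for 48 h at 37 °C. Supernatant EPO measured by ELISA; value is fold stimulation at 3 μmol/L compound over unstimulated control.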

human HIF-PHD3 = biological target: T2, human HIF-PHD3 (Homo sapiens, UniProt Q9H6Z9); assay: HIF-PHD inhibition assay (fluorescence polarization), human HIF-PHD3; assay type: biochemical; settings: 2-oxoglutaric acid 166 μmol/L
T2 construct: purchased CrystalGenomics Ltd
T2 sequence (Q9H6Z9 whole entry): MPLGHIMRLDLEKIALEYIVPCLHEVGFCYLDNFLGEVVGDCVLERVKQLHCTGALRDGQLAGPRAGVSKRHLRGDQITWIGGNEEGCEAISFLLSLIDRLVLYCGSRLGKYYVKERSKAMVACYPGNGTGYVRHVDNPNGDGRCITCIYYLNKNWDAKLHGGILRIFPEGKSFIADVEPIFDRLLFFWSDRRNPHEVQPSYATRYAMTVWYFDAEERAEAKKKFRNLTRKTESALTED
Summary of the method: as §1

T1 sequence (Q9GZT9 2-426 limits assumed): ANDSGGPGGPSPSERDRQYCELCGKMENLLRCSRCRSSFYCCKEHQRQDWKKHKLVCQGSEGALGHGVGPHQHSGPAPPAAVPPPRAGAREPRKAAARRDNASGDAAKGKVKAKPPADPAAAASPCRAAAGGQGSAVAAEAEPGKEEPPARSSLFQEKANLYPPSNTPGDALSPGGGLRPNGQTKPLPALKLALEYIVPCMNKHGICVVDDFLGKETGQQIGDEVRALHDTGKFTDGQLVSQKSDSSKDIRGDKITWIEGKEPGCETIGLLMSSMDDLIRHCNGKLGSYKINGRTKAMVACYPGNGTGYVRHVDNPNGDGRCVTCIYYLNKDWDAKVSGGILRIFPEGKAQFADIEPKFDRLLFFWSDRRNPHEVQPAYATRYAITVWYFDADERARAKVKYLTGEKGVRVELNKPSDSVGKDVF

SMILES | IC50 (human HIF-PHD2) | fold induction at 3 µM (Hep3B cells) | IC50 (human HIF-PHD3)
O=C(O)c1cnn(-c2nc(O)c3c(cnn3Cc3cccc(-c4ccccc4F)c3)n2)c1 [Example 46] | 68 nM | 3.7 | 85 nM
O=C(O)c1cnn(-c2nc(O)c3c(cnn3CC3(c4ccccc4)CCCCC3)n2)c1 [Example 124] | 55 nM | 3.4 | 930 nM
O=C(O)c1cnn(-c2nc(O)c3c(n2)c(C2CC2)nn3CC2CCCCC2)c1 [Example 234] | 91 nM | 5.7 | 660 nM
O=C(O)c1cnn(-c2nc(O)c3c(cnn3Cc3ccc4cc(F)ccc4c3)n2)c1 [Example 32] | 14 nM | 5.7 | 320 nM
O=C(O)c1cnn(-c2nc(O)c3c(cnn3CC3CCN(c4ccc(C(F)(F)F)cn4)CC3)n2)c1 [Example 171] | 14 nM | 11 | 160 nM
O=C(O)c1cnn(-c2nc(O)c3c(cnn3Cc3ccc(F)c(Cl)c3)n2)c1 [Example 10] | 22 nM | 3.4 | 240 nM
C[C@H]1CC[C@H](Cn2ncc3nc(-n4cc(C(=O)O)cn4)nc(O)c32)CC1 [Example 139] | 30 nM | 1.6 | 520 nM
O=C(O)c1cnn(-c2nc(O)c3nn(Cc4cccc(-c5ccccc5)c4)cc3n2)c1 [Example 240] | 17 nM | 1 | 140 nM
C[C@@H](c1ccc(-c2ccccc2F)cc1)n1ncc2nc(-n3cc(C(=O)O)cn3)nc(O)c21 [Example 112] | 13 nM | 28 | 87 nM
O=C(O)c1cnn(-c2nc(O)c3c(cnn3Cc3cc(F)cc(Br)c3)n2)c1 [Example 15] | 52 nM | 1.7 | 290 nM
COc1cccc(Cl)c1-c1ccc(Cn2ncc3nc(-n4cc(C(=O)O)cn4)nc(O)c32)cc1 [Example 69] | 13 nM | 7.8 | 110 nM
C[C@@H](C1CCCCC1)n1nc(F)c2nc(-n3cc(C(=O)O)cn3)nc(O)c21 [Example 468] | 25 nM | 3.1 | 300 nM
O=C(O)c1cnn(-c2nc(O)c3nn(CCCN(c4ccccc4)c4ccccc4)cc3n2)c1 [Example 246] | 21 nM | 1.8 | 160 nM
CC(C)(Cn1ncc2nc(-n3cc(C(=O)O)cn3)nc(O)c21)Oc1ccc(Cl)cc1 [Example 210] | 21 nM | 19 | 220 nM
O=C(O)c1cnn(-c2nc(O)c3c(cnn3CCOc3ccc4ccccc4c3)n2)c1 [Example 207] | 13 nM | 2.5 | 160 nM
O=C(O)c1cnn(-c2nc(O)c3c(cnn3Cc3ccc(-c4ccccc4)c(F)c3)n2)c1 [Example 91] | 24 nM | 8.6 | 28 nM
O=C(O)c1cnn(-c2nc(O)c3c(cnn3CCCc3ccc4ccccc4c3)n2)c1 [Example 131] | 72 nM | 8.6 | 700 nM
O=C(O)c1cnn(-c2nc(O)c3c(n2)c(F)nn3CCC2CCCC2)c1 [Example 471] | 15 nM | 1.4 | 170 nM
O=C(O)c1cnn(-c2nc(O)c3nn(Cc4cc(C(F)(F)F)cc(Cl)c4F)cc3n2)c1 [Example 238] | 10 nM | 0.7 | 770 nM
COc1ccccc1-c1ccc(Cn2ncc3nc(-n4cc(C(=O)O)cn4)nc(O)c32)c(F)c1 [Example 85] | 11 nM | 4 | 66 nM
O=C(O)c1cnn(-c2nc(O)c3c(cnn3C[C@H]3CC[C@@H](Oc4ccccc4F)CC3)n2)c1 [Example 147] | 5.3 nM | 4 | 330 nM
O=C(O)c1cnn(-c2nc(O)c3c(cnn3Cc3cc(F)cc(-c4ccccc4)c3)n2)c1 [Example 50] | 51 nM | 6.3 | 320 nM
O=C(O)c1cnn(-c2nc(O)c3c(cnn3Cc3cccc(-c4ccc(F)cc4)c3)n2)c1 [Example 40] | 11 nM | 5 | 140 nM
O=C(O)c1cnn(-c2nc(O)c3c(cnn3C(c3ccc(Cl)cc3)c3ccc(Cl)cc3)n2)c1 [Example 27] | 20 nM | 26 | 2600 nM
O=C(O)c1cnn(-c2nc(O)c3[nH]ncc3n2)c1 [Example 484] | 35 nM | 1.6 | > 1000 nM
O=C(O)c1cnn(-c2nc(O)c3c(cnn3C[C@H]3CC[C@@H](C(F)(F)F)CC3)n2)c1 [Example 138] | 160 nM | 2.9 | 600 nM
O=C(O)c1cnn(-c2nc(O)c3c(cnn3CCCOc3ccc(Cl)c4c3CCC4)n2)c1 [Example 194] | 14 nM | 18 | 53 nM
CC1(Cn2ncc3nc(-n4cc(C(=O)O)cn4)nc(O)c32)CCCCC1 [Example 157] | 40 nM | 4 | 720 nM
CC(C)(C)c1ccc(OCCn2ncc3nc(-n4cc(C(=O)O)cn4)nc(O)c32)cc1 [Example 204] | 19 nM | 12 | 650 nM
O=C(O)c1cnn(-c2nc(O)c3c(cnn3C[C@H]3CC[C@H](Oc4ccccc4F)CC3)n2)c1 [Example 146] | 15 nM | 2.6 | 300 nM
